Data from US20230077362A1 (CORTEVA AGRISCIENCE LLC, priority 2019, published 2023).
Where two headings read alike, the source gives them in different places.

How the values were obtained:
[1] = tested on: Cabbage Looper (Trichoplusia ni) ("CL"), second instar larvae; experiment: Bioassay on cabbage looper (CL), 128-well diet tray assay; format: in vivo; conditions: for pest or weed control at 50 µg/cm2: Trichoplusia ni; for CL rating: Table ABC, species CL, C = not tested, D = no activity noticed
Summary of the method: (§1)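 Each value represents average percent mortality from eight wells. Larvae were kept in clear-covered trays at 25° C. for five to seven days on a 14-hour light, 10-hour dark schedule before scoring.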

[2] = tested on: Beet Armyworm (Spodoptera exigua) ("BAW"), second instar larvae; experiment: Bioassay on beet armyworm (BAW), 128-well diet tray assay; format: in vivo; conditions: for pest or weed control at 50 µg/cm2: Spodoptera exigua; for BAW rating: Table ABC, species BAW, C = not tested, D = no activity noticed
Summary of the method: as §1

[3] = read-out: CL (Biological Results, rating)
[4] = read-out: BAW (Biological Results, rating)

Row | Structure (SMILES) | pest or weed control at 50 µg/cm2 [1, 3] [%] | pest or weed control at 50 µg/cm2 [2, 4] [%] | pest or weed control at 50 µg/cm2 ([1]; read-out: CL rating) [%] | pest or weed control at 50 µg/cm2 ([2]; read-out: BAW rating) [%] | other results
1 | Cc1ccc(C(C)C)c(N2C(=O)CS/C2=N\C(=O)Nc2ccc(-c3ncn(-c4ccc(C(F)(F)F)cc4)n3)cc2F)c1 [Compound J61, (Z)-1-(2-Fluoro-4-(1-(4-(trifluoromethyl)phenyl)-1H-1,2,4-triazol-3-yl)phenyl)-3-(3-(2-isopropyl-5-methylphenyl)-4-oxothiazolidin-2-ylidene)urea] | 50 to 100 | 50 to 100 | – | – | –
2 | COC(c1ccc(C)cc1N1C(=O)CS/C1=N\C(=O)Nc1ccc(-n2cnc(-c3ccc(OC(F)(F)F)cc3)n2)cc1C)C(F)(F)F (stereo not shown) [Compound J443, (Z)-1-(3-(5-Methyl-2-(2,2,2-trifluoro-1-methoxyethyl)phenyl)-4-oxothiazolidin-2-ylidene)-3-(2-methyl-4-(3-(4-(trifluoromethoxy)phenyl)-1H-1,2,4-triazol-1-yl)phenyl)urea] | – | – | 50 to 100 | 50 to 100 | –
3 | Cc1ccc(COCC(F)(F)F)c(N2C(=O)CS/C2=N\C(=O)Nc2ccc(-c3ncn(-c4ccc(OC(F)(F)F)cn4)n3)cc2C#N)c1 [Compound J265, (Z)-1-(2-Cyano-4-(1-(5-(trifluoromethoxy)pyridin-2-yl)-1H-1,2,4-triazol-3-yl)phenyl)-3-(3-(5-methyl-2-((2,2,2-trifluoroethoxy)methyl)phenyl)-4-oxothiazolidin-2-ylidene)urea] | 50 to 100 | 50 to 100 | – | – | –
4 | COC(c1ccc(C)cc1N1C(=O)CS/C1=N\C(=O)Nc1ccc(-c2cn(-c3ccc(S(F)(F)(F)(F)F)cc3)cn2)cc1C)C(F)(F)F (stereo not shown) [Compound J617, (Z)-1-(3-(5-Methyl-2-(2,2,2-trifluoro-1-methoxyethyl)phenyl)-4-oxothiazolidin-2-ylidene)-3-(2-methyl-4-(1-(4-(pentafluoro-λ^6-sulfaneyl)phenyl)-1H-imidazol-4-yl)phenyl)urea] | – | – | 50 to 100 | 50 to 100 | –
5 | CC(C)c1cc(F)c(N(C)C)cc1N1C(=O)CS/C1=N\C(=O)Nc1ccc(-c2ncn(-c3ccc([S+]([O-])C(F)(F)F)cc3)n2)cc1F (stereo not shown) [Compound J384, (Z)-1-(3-(5-(Dimethylamino)-4-fluoro-2-isopropylphenyl)-4-oxothiazolidin-2-ylidene)-3-(2-fluoro-4-(1-(4-((trifluoromethyl)sulfinyl)phenyl)-1H-1,2,4-triazol-3-yl)phenyl)urea] | – | – | 50 to 100 | 50 to 100 | –
6 | COc1ccc(C(C)C)c(N2C(=O)CS/C2=N\C(=O)Nc2ccc(-c3ncn(-c4ccc(OC(F)(F)F)cc4)n3)cc2Cl)c1 [Compound J37, (Z)-1-(2-Chloro-4-(1-(4-(trifluoromethoxy)phenyl)-1H-1,2,4-triazol-3-yl)phenyl)-3-(3-(2-isopropyl-5-methoxyphenyl)-4-oxothiazolidin-2-ylidene)urea] | 50 to 100 | 50 to 100 | – | – | –
7 | Cc1ccc(N2C(=O)CS/C2=N\C(=O)Nc2ccc(-c3ncn(-c4ccc(OC(F)(F)F)cc4)n3)cc2F)c(COCC(F)(F)F)c1 [Compound J438] | – | – | – | – | CL rating [1]: A (50-100); BAW rating [2]: A (50-100)
8 | CC(C)c1ccc(N(C)C)cc1N1C(=O)CS/C1=N\C(=O)Nc1ccc(-c2ncn(-c3ccc(OC(F)(F)F)cc3)n2)cc1Cl [Compound J166, (Z)-1-(2-Chloro-4-(1-(4-(trifluoromethoxy)phenyl)-1H-1,2,4-triazol-3-yl)phenyl)-3-(3-(5-(dimethylamino)-2-isopropylphenyl)-4-oxothiazolidin-2-ylidene)urea] | 50 to 100 | 50 to 100 | – | – | –
9 | CCCc1ccc(N(C)C)cc1N1C(=O)CS/C1=N\C(=O)Nc1ccc(-c2ncn(-c3ccc(S(=O)(=O)C(F)(F)F)cc3)n2)cc1F [Compound J370, (Z)-1-(3-(5-(Dimethylamino)-2-propylphenyl)-4-oxothiazolidin-2-ylidene)-3-(2-fluoro-4-(1-(4-((trifluoromethyl)sulfonyl)phenyl)-1H-1,2,4-triazol-3-yl)phenyl)urea] | – | – | 50 to 100 | 50 to 100 | –
10 | COc1ccc(C(C)C)c(N2C(=O)CS/C2=N\C(=O)Nc2c(C)cc(-c3ncn(-c4ccc(OC(F)(F)F)cc4)n3)cc2C)c1 [Compound J98, (Z)-1-(2,6-Dimethyl-4-(1-(4-(trifluoromethoxy)phenyl)-1H-1,2,4-triazol-3-yl)phenyl)-3-(3-(2-isopropyl-5-methoxyphenyl)-4-oxothiazolidin-2-ylidene)urea] | 50 to 100 | 50 to 100 | – | – | –
11 | COC(C)c1ccc(C)cc1N1C(=O)CS/C1=N\C(=O)Nc1ccc(-c2cn(-c3ccc(C(F)(F)F)cc3)cn2)cc1 (stereo not shown) [Compound J513, (Z)-1-(3-(2-(1-Methoxyethyl)-5-methylphenyl)-4-oxothiazolidin-2-ylidene)-3-(4-(1-(4-(trifluoromethyl)phenyl)-1H-imidazol-4-yl)phenyl)urea] | – | – | 50 to 100 | 50 to 100 | –
12 | COc1ccc(OCCC(F)(F)F)c(N2C(=O)CS/C2=N\C(=O)Nc2ccc(-c3ncn(-c4ccc(OC(F)(F)F)cc4)n3)cc2F)c1 [Compound J92, (Z)-1-(2-Fluoro-4-(1-(4-(trifluoromethoxy)phenyl)-1H-1,2,4-triazol-3-yl)phenyl)-3-(3-(5-methoxy-2-(3,3,3-trifluoropropoxy)phenyl)-4-oxothiazolidin-2-ylidene)urea] | 50 to 100 | 50 to 100 | – | – | –
13 | Cc1ccc(Cc2ccccc2)c(N2C(=O)CS/C2=N\C(=O)Nc2ccc(-c3ncn(-c4ccc(OC(F)(F)F)cc4)n3)cc2F)c1 [Compound J457, (Z)-1-(3-(2-Benzyl-5-methylphenyl)-4-oxothiazolidin-2-ylidene)-3-(2-fluoro-4-(1-(4-(trifluoromethoxy)phenyl)-1H-1,2,4-triazol-3-yl)phenyl)urea] | – | – | 50 to 100 | 50 to 100 | –
14 | Cc1cc(-c2ncn(-c3ccc(OC(F)(F)F)cn3)n2)ccc1NC(=O)/N=C1\SCC(=O)N1c1cc(N(C)C)ccc1C(C)C [Compound J251, (Z)-1-(3-(5-(Dimethylamino)-2-isopropylphenyl)-4-oxothiazolidin-2-ylidene)-3-(2-methyl-4-(1-(5-(trifluoromethoxy)pyridin-2-yl)-1H-1,2,4-triazol-3-yl)phenyl)urea] | 50 to 100 | 50 to 100 | – | – | –
15 | Cc1cc(COCC(F)(F)F)c(N2C(=O)CS/C2=N\C(=O)Nc2ccc(-c3ncn(-c4ccc(C(F)(F)F)cc4)n3)cc2F)cc1C [Compound J660] | – | – | – | – | CL rating [1]: A (50-100); BAW rating [2]: A (50-100)
16 | Cc1cccc(N2C(=O)CS/C2=N\C(=O)Nc2ccc(-n3cnc(-c4ccc(OC(F)(F)F)cc4)n3)cc2F)c1COCC(F)(F)F [Compound J703, (Z)-1-(2-Fluoro-4-(3-(4-(trifluoromethoxy)phenyl)-1H-1,2,4-triazol-1-yl)phenyl)-3-(3-(3-methyl-2-((2,2,2-trifluoroethoxy)methyl)phenyl)-4-oxothiazolidin-2-ylidene)urea] | – | – | 50 to 100 | 50 to 100 | –
17 | CCOCc1ccc(C)cc1N1C(=O)CS/C1=N\C(=O)Nc1ccc(-c2ncn(-c3cccc(C(F)(F)F)c3)n2)cc1F [Compound J723] | – | – | – | – | CL rating [1]: A (50-100); BAW rating [2]: A (50-100)
